The text below walks through data of patent US7408065B2, “P2X7 receptor antagonists and their use” (AstraZeneca AB, priority 2003, dated 2008).

The target in one series is T1, P2X7 receptor (Homo sapiens, UniProt Q99572).
T1 construct: 200 μl of a suspension of THP-1 cells; endogenous in cells; host or cells: THP-1 cells
T1 sequence (Q99572 1-595): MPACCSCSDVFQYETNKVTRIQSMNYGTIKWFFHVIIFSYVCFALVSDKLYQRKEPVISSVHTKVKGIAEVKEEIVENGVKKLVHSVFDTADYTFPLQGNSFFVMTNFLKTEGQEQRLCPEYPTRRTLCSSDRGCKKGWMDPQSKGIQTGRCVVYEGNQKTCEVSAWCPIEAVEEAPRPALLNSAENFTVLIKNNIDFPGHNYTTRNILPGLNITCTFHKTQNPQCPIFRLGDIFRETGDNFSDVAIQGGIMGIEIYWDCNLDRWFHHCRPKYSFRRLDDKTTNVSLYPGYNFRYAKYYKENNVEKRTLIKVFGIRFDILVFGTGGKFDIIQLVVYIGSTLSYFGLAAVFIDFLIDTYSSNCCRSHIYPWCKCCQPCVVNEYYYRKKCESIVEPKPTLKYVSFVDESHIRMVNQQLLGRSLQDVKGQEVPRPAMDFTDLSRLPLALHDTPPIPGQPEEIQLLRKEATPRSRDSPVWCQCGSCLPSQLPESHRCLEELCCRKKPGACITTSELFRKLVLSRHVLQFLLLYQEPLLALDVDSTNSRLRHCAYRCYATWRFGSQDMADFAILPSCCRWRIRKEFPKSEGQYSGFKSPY
The series can be described thus: P2X7 receptor antagonist activity: bbATP-induced ethidium bromide fluorescence in THP-1 cells. It is filed as cell-based. The protocol: Consequently, when the receptor is activated using bbATP in the presence of ethidium bromide (a fluorescent DNA probe), an increase in the fluorescence of intracellular DNA-bound ethidium bromide is observed. The increase in fluorescence can be used as a measure of P2X7 receptor activation and therefore to quantify the effect of a compound on the P2X7 receptor.
In this manner, each of the title compounds of the Examples was tested for antagonist activity at the P2X7 receptor. Thus, the test was performed in 96-well flat bottomed microtitre plates, the wells being filled with 250 μl of test solution comprising 200 μl of a suspension of THP-1 cells (2.5×10^6 cells/ml) containing 10^−4M ethidium bromide, 25 μl of a high potassium buffer solution containing 10^−5M bbATP, and 25 μl of the high potassium buffer solution containing 3×10^−5M test compound. The plate was covered with a plastics sheet and incubated at 37° C. for one hour. […] For the purposes of comparison, bbATP (a P2X7 receptor agonist) and pyridoxal 5-phosphate (a P2X7 receptor antagonist) were used separately in the test as controls.

[1] abbreviates: THP-1 cells, negative logarithm of concentration reducing bbATP agonist activity by 50%, ethidium bromide fluorescence, 37° C., one hour, read-out: pIC50 (converted).

Structures can show the parent of a compound that is named as a salt. Where two headings read alike, the source gives them in different places.

For the compound `O=C(CC1CCCCC1)Nc1c(Cl)ccc2nc(NCCCO)ccc12` [Example 5, N-[6-Chloro-2-[(3-hydroxypropyl)amino]-5-quinolinyl]-cyclohexaneacetamide, Hydrochloride], the IC50 on P2X7 receptor (setting [1]) is 126 nM.

Turning to `O=C(CC1CCCCC1)Nc1c(Cl)ccc2nc(NCCNCCO)ccc12` [Example 17, N-[6-Chloro-2-[[2-[(2-hydroxyethyl)amino]ethyl]amino]-5-quinolinyl]-cyclohexaneacetamide, Dihydrochloride], at P2X7 receptor (setting [1]), the IC50 is 25.1 nM.

`CC1CCC(CC(=O)Nc2cccc3ncccc23)CC1` (stereo not drawn) [Example 20, 4-Methyl-N-5-quinolinyl-cyclohexaneacetamide]: on P2X7 receptor (setting [1]), the IC50 was 126 nM. Broadly, the melting point is the temperature, or range, at which the solid turns liquid. The compound `CS(=O)(=O)NC(=O)NCCCc1ccc2c(NC(=O)CC3CCCCC3)c(Cl)ccc2n1` [Example 24, N-[6-Chloro-2-[3-[[[(methylsulfonyl)amino]carbonyl]amino]propyl]-5-quinolinyl]-cyclohexaneacetamide] had a melting point of 151 to 152 °C. This compound showed an IC50 at P2X7 receptor of 501 nM.

Compound `O=C(CC1CCCCC1)Nc1c(Cl)ccc2nc(N3CC[C@@H](O)C3)ccc12` [Example 28, N-[6-Chloro-2-[(3R)-3-hydroxy-1-pyrrolidinyl]-5-quinolinyl]-cyclohexaneacetamide] showed a melting point of 226 to 227 °C. In addition, the IC50 at P2X7 receptor (setting [1]) is 39.8 nM. `CN[C@@H]1CCN(c2ccc3c(NC(=O)CC4CCCCC4)c(Cl)ccc3n2)C1` [Example 33, N-[6-Chloro-2-[(3R)-3-(methylamino)-1-pyrrolidinyl]-5-quinolinyl]-cyclohexaneacetamide] gave a melting point of 169 °C. In addition, at P2X7 receptor (setting [1]), the IC50 is 25.1 nM. The like results for `O=C(CC1CCCCC1)Nc1c(Cl)ccc2nc(N3CCC[C@@H](O)C3)ccc12` [Example 37, N-[6-Chloro-2-[(3R)-3-hydroxy-1-piperidinyl]-5-quinolinyl]-cyclohexaneacetamide] were, in that order, 209 to 214 °C and 50.1 nM. With `O=C(NCC1CCCCC1)c1c(Cl)ccc2ncccc12` [Example 42, 6-Chloro-N-(cyclohexylmethyl)quinoline-5-carboxamide], the IC50 on P2X7 receptor (setting [1]) was 316 nM. On the same count and under the same terms, the value for `O=C(O)CN1CCN(c2ccc3c(C(=O)NCC4CCCCC4)c(Cl)ccc3n2)CC1` [Example 73, 4-[6-Chloro-5-[[(cyclohexylmethyl)amino]carbonyl]-2-quinolinyl]-1-piperazineacetic acid, Acetate] was 398 nM. For `O=C(CC1CCCCC1)Nc1c(Cl)ccc2nc(N3CC[C@H](NCCc4nnn[nH]4)C3)ccc12` [Example 101, N-[6-Chloro-2-[(3S)-3-[[2-(2H-tetrazol-5-yl)ethyl]amino]-1-pyrrolidinyl]-5-quinolinyl]-cyclohexaneacetamide], the melting point was in the range of 220 to 221 °C. For `O=C(CC1CCCCC1)Nc1c(Cl)ccc2nc(N3CCC(c4noc(=O)[nH]4)CC3)ccc12` [Example 102, N-[6-Chloro-2-[4-(4,5-dihydro-5-oxo-1,2,4-oxadiazol-3-yl)-1-piperidinyl]-5-quinolinyl]-cyclohexaneacetamide], the melting point lay within 233 to 235 °C. For the same compound, on P2X7 receptor (setting [1]), the IC50 is 200 nM. `O=C(CC1CCCCC1)Nc1c(Cl)ccc2nc(N3CCC(c4nsc(=O)[nH]4)CC3)ccc12` [Example 103, N-[6-Chloro-2-[4-(4,5-dihydro-5-oxo-1,2,4-thiadiazol-3-yl)-1-piperidinyl]-5-quinolinyl]-cyclohexaneacetamide] came in with a melting point of 275 °C. For `O=C(CC1CCCCC1)Nc1c(Cl)ccc2nc(CCCCc3nnn[nH]3)ccc12` [Example 105, N-[6-Chloro-2-[4-(1H-tetrazol-5-yl)butyl]-5-quinolinyl]-cyclohexaneacetamide], the melting point lay in the range of 192 to 195 °C. Consider `O=C(NCC1CCCCC1)c1c(Cl)ccc2nc(CCCCc3nnn[nH]3)ccc12` [Example 106, 6-Chloro-N-(cyclohexylmethyl)-2-[4-(1H-tetrazol-5-yl)butyl]-5-quinolinecarboxamide], for which the melting point lay within 90 to 93 °C. Still for that read-out and setting: the value for `O=C(CC1CCCCC1)Nc1c(Cl)ccc2nc(N3CC[C@H](OCCc4nnn[nH]4)C3)ccc12` [Example 107, N-[6-Chloro-2-[(3S)-3-[2-(1H-tetrazol-5-yl)ethoxy]-1-pyrrolidinyl]-5-quinolinyl]-cyclohexaneacetamide] was 177 to 181 °C; that for `O=C(CC1CCCCC1)Nc1c(Cl)ccc2nc(N3CC[C@H](OCCc4noc(=O)[nH]4)C3)ccc12` [Example 108, N-[6-Chloro-2-[(3S)-3-[2-(4,5-dihydro-5-oxo-1,2,4-oxadiazol-3-yl)ethoxy]-1-pyrrolidinyl]-5-quinolinyl]-cyclohexaneacetamide] was 185 to 190 °C; that for `O=C(CC1CCCCC1)Nc1c(Cl)ccc2nc(N3CCC(c4nnn[nH]4)CC3)ccc12` [Example 109, N-[6-Chloro-2-[4-(1H-tetrazol-5-yl)-1-piperidinyl]-5-quinolinyl]cyclohexane-acetamide] was 295 to 300 °C.

With `O=C(NCC1CCCCC1)c1c(Cl)ccc2nc(N3CCC(c4nnn[nH]4)CC3)ccc12` [Example 110, 6-Chloro-N-(cyclohexylmethyl)-2-[4-(1H-tetrazol-5-yl)-1-piperidinyl]-5-quinolinecarboxamide], the melting point was in the range of 255 to 257 °C.

On to `O=C(NCCC1CCCCC1)c1c(Cl)ccc2nc(N3CCC(c4nnn[nH]4)CC3)ccc12` [Example 111, 6-Chloro-N-(2-cyclohexylethyl)-2-[4-(1H-tetrazol-5-yl)-1-piperidinyl]-5-quinolinecarboxamide], for which the melting point lay in the range of 252 to 255 °C. In the case of `O=C1CN([C@H]2CCN(c3ccc4c(C(=O)NCC5CCCCC5)c(Cl)ccc4n3)C2)S(=O)(=O)N1` [Example 112, 6-Chloro-N-(cyclohexylmethyl)-2-[(3S)-3-(1,1-dioxido-4-oxo-1,2,5-thiadiazolidin-2-yl)-1-pyrrolidinyl]-5-quinolinecarboxamide], the IC50 at P2X7 receptor (setting [1]) is 316 nM. `N#CC1CCN(c2ccc3c(NC(=O)CC4CCCCC4)c(Cl)ccc3n2)CC1` [Example 113, N-[6-Chloro-2-(4-cyan-1-piperidinyl)-5-quinolinyl]-cyclhexaneacetamide] gave a melting point of 235 to 237 °C.

For `O=C(CC1CCCCC1)Nc1c(Cl)ccc2nc(N3CCC(NS(=O)(=O)C(F)(F)F)CC3)ccc12` [Example 114, N-[6-Chloro-2-[4-[[(trifluoromethyl)sulfonyl]amino]-1-piperidinyl]-5-quinolinyl]-cyclohexaneacetamide], the melting point lay within 187 to 189 °C.
